Measured values taken from ChEMBL document CHEMBL1949541, “Discovery of 7-arylsulfonyl-1,2,3,4, 4a,9a-hexahydro-benzo[4,5]furo[2,3-c]pyridines: identification of a potent and selective 5-HT₆ receptor antagonist showing activity in rat social recognition test” (Bioorg Med Chem Lett, 2012).
Blank lines part the entries; values can stand above or below the compound they belong to.

Columns and labels:
[1] = (§1) Oral bioavailability in rat; format: ADME, organism-based; settings: in vivo
[2] = target: T1, 5-hydroxytryptamine receptor 6 (Homo sapiens, UniProt P50406); assay: Displacement of [3H]LSD from human recombinant 5HT6 receptor
Rattus norvegicus [3] = assay: AUC in po dosed rat; format: ADME, organism-based, Plasma; settings: in vivo
Rattus norvegicus [4] = assay: as §1; format: ADME, organism-based; settings: in vivo
[5] = target: 5-hydroxytryptamine receptor 6 (Rattus norvegicus, UniProt P31388); assay: Displacement of [3H]LSD from rat recombinant 5HT6 receptor
[6] = target: T1, 5-hydroxytryptamine receptor 6; assay: Antagonist activity at human 5HT6 receptor expressed in human astrocytoma cells assessed as inhibition of cAMP production; format: functional, cell-based
Cytochrome P450 3A4 = Cytochrome P450 3A4 (Homo sapiens, UniProt P08684); assay: Inhibition of CYP 3A4; format: ADME
[7] = target: Voltage-gated inwardly rectifying potassium channel KCNH2 (Homo sapiens, UniProt Q12809); assay: Inhibition of human ERG by patch clamp assay
Cytochrome P450 1A2 = Cytochrome P450 1A2 (Homo sapiens, UniProt P05177); assay: Inhibition of CYP 1A2; format: ADME
[8] = target: T2, 5-hydroxytryptamine receptor 2B (Homo sapiens, UniProt P41595); assay: Inhibition of human 5HT2B
Rattus norvegicus [9] = assay: Antiamnesic activity in rat assessed as decrease in ratio of investigation duration of familiar juvenile rat at 1 mg/kg, ip administered 120 mins prior to test by social recognition test; format: functional; parameters: scale not given: the % may be the effect or the level left; settings: route intraperitoneal
Rattus norvegicus [10] = assay: Antiamnesic activity in rat assessed as decrease in ratio of investigation duration of familiar juvenile rat at 0.3 mg/kg, ip administered 120 mins prior to test by social recognition test; format: functional; parameters: scale not given: the % may be the effect or the level left; settings: route intraperitoneal
Cytochrome P450 2D6 = Cytochrome P450 2D6 (Homo sapiens, UniProt P10635); assay: Inhibition of CYP 2D6; format: ADME
[11] = Inhibition of calcium channel-L type
[12] = Plasma protein binding in rat; format: ADME, cell-free; settings: read-out: PPB (converted)
[13] = Half life in dog liver microsomes; format: ADME, Canis lupus familiaris, Microsome
[14] = Half life in mouse liver microsomes; format: ADME, Microsome
[15] = Aqueous solubility at pH 7.4; format: physicochemical; settings: buffer
[16] = Half life in rat liver microsomes; format: ADME, Microsome
[17] = target: Muscarinic acetylcholine receptor M1 (Homo sapiens, UniProt P11229); assay: Inhibition of M1 receptor
Cytochrome P450 2C19 = Cytochrome P450 2C19 (Homo sapiens, UniProt P33261); assay: Inhibition of CYP 2C19; format: ADME
Rattus norvegicus [18] = assay: Half life in rat at 1 mg/kg, iv; format: ADME, organism-based; parameters: dose 1 mg/kg, route intravenous; settings: in vivo
[19] = Plasma protein binding in human; format: ADME, cell-free; settings: read-out: PPB (converted)
[20] = target: T3, Sodium-dependent dopamine transporter (Homo sapiens, UniProt Q01959); assay: Inhibition of DA transporter
[21] = target: Muscarinic acetylcholine receptor M4 (Homo sapiens, UniProt P08173); assay: Inhibition of M4 receptor
Rattus norvegicus [22] = assay: Antiamnesic activity in rat assessed as decrease in ratio of investigation duration of familiar juvenile rat at 3 mg/kg, ip administered 120 mins prior to test by social recognition test; format: functional; parameters: scale not given: the % may be the effect or the level left; settings: route intraperitoneal
[23] = target: Muscarinic acetylcholine receptor M2 (Homo sapiens, UniProt P08172); assay: Inhibition of M2 receptor
[24] = Apparent permeability from apical to basal side of MDCK2-MDR1; format: ADME, cell-based, Canis lupus familiaris, MDCK-II; settings: dog, MDCK-MDR1
[25] = Aqueous solubility at pH 2; format: physicochemical; settings: buffer
[26] = target: T4, 5-hydroxytryptamine receptor 2A (Homo sapiens, UniProt P28223); assay: Inhibition of human 5HT2A
Rattus norvegicus [27] = assay: Volume of distribution in rat at 1 mg/kg, iv; format: ADME, organism-based; parameters: dose 1 mg/kg, route intravenous; settings: in vivo
[28] = Ratio of drug uptake in brain to plasma in rat at 5 mg/kg, po; format: ADME, organism-based; parameters: dose 5 mg/kg, route oral; settings: read-out: BPR
[29] = target: T5, Sodium-dependent noradrenaline transporter (Homo sapiens, UniProt P23975); assay: Inhibition of NA transporter
[30] = Half life in human liver microsomes; format: ADME, Microsome
[31] = target: 5-hydroxytryptamine receptor 2C (Homo sapiens, UniProt P28335); assay: Inhibition of human 5HT2C
[32] = Oral bioavailability in rat at 5 mg/kg at 24 hrs; format: ADME, organism-based; settings: in vivo
Cytochrome P450 2C9 = Cytochrome P450 2C9 (Homo sapiens, UniProt P11712); assay: Inhibition of CYP 2C9; format: ADME
[33] = target: 5-hydroxytryptamine receptor 1A (Homo sapiens) (UniProt P08908); assay: Inhibition of human 5HT1A at 10 uM
[34] = target: Muscarinic acetylcholine receptor M4 (Homo sapiens) (UniProt P08173); settings: 10 uM
Description: Inhibition of M4 receptor at 10 uM

[35] = target: T2, 5-hydroxytryptamine receptor 2B; assay: Inhibition of human 5HT2B at 10 uM
[36] = target: 5-hydroxytryptamine receptor 2C (Homo sapiens) (UniProt P28335); assay: Inhibition of human 5HT2C at 10 uM
[37] = target: T5, Sodium-dependent noradrenaline transporter; settings: 10 uM
[38] = target: 5-hydroxytryptamine receptor 1B (Rattus norvegicus) (UniProt P28564); assay: Inhibition of rat […] at 10 uM
[39] = target: 5-hydroxytryptamine receptor 3A (Homo sapiens) (UniProt P46098); assay: Inhibition of human 5HT3 at 10 uM
[40] = target: 5-hydroxytryptamine receptor 7 (Homo sapiens) (UniProt P34969); assay: Inhibition of human 5HT7 at 10 uM
[41] = target: Muscarinic acetylcholine receptor M1 (Homo sapiens) (UniProt P11229); settings: 10 uM
[42] = target: T4, 5-hydroxytryptamine receptor 2A; assay: Inhibition of human 5HT2A at 10 uM
Rattus norvegicus [43] = assay: Antiamnesic activity in ip dosed rat assessed as decrease in ratio of investigation duration of familiar juvenile rat administered 120 mins prior to test by social recognition test; format: functional, organism-based
[44] = target: T3, Sodium-dependent dopamine transporter; settings: 10 uM
[45] = target: 5-hydroxytryptamine receptor 5A (Homo sapiens) (UniProt P47898); assay: Inhibition of human 5HT5A at 10 uM
[46] = target: Muscarinic acetylcholine receptor M2 (Homo sapiens) (UniProt P08172); settings: 10 uM
Chain of Muscarinic acetylcholine receptor M2 (Homo sapiens) (P08172 whole entry): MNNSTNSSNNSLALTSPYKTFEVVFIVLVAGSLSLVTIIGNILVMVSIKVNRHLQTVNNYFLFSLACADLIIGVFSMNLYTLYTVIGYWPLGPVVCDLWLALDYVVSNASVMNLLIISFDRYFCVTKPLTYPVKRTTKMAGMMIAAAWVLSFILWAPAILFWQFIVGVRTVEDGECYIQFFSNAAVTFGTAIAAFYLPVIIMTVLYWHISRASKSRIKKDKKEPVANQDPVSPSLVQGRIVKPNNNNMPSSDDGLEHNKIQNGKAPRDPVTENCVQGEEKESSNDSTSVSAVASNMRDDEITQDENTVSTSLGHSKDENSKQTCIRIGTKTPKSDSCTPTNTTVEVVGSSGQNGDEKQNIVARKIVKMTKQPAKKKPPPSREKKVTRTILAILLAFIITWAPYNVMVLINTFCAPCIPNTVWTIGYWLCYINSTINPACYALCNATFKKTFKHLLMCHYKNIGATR
Description: Inhibition of M2 receptor at 10 uM

T1 sequence (P50406 whole entry): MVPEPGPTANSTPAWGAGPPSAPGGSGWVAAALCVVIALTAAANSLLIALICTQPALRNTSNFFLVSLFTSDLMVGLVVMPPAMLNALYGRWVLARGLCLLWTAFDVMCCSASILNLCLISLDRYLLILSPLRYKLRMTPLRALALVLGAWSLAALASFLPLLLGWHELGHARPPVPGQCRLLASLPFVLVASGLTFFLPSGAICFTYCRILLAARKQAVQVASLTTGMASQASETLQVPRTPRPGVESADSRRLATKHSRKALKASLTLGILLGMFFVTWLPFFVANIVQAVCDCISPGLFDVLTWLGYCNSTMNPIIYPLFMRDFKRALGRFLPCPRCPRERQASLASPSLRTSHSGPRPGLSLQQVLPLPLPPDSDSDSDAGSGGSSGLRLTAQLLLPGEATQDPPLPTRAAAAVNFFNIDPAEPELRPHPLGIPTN
Chain of 5-hydroxytryptamine receptor 6 (Rattus norvegicus, UniProt P31388) (P31388 whole entry): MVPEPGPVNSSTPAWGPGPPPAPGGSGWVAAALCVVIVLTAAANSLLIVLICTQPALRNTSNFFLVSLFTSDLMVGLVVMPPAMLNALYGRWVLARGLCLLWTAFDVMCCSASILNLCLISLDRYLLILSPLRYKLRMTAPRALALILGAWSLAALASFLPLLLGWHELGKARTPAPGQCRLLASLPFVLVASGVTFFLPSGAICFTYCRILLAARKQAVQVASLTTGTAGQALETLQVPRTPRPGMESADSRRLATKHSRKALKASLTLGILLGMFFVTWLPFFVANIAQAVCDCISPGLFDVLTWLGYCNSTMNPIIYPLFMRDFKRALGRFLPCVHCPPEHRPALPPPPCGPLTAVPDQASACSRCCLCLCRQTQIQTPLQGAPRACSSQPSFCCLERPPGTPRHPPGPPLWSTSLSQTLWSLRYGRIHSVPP
T2 sequence (P41595 whole entry): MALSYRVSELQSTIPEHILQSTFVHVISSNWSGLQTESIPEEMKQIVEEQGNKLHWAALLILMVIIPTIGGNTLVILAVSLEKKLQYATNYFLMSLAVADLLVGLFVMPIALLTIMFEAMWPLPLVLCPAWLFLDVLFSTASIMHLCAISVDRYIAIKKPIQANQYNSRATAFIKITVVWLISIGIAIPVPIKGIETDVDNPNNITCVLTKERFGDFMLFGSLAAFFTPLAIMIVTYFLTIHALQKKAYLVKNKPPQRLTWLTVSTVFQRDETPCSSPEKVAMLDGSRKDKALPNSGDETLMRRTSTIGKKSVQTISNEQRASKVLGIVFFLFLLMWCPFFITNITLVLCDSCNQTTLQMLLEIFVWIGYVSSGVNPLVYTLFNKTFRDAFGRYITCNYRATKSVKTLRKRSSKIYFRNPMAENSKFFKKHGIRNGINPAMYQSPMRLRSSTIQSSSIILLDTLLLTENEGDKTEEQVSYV
T3 sequence (Q01959 whole entry): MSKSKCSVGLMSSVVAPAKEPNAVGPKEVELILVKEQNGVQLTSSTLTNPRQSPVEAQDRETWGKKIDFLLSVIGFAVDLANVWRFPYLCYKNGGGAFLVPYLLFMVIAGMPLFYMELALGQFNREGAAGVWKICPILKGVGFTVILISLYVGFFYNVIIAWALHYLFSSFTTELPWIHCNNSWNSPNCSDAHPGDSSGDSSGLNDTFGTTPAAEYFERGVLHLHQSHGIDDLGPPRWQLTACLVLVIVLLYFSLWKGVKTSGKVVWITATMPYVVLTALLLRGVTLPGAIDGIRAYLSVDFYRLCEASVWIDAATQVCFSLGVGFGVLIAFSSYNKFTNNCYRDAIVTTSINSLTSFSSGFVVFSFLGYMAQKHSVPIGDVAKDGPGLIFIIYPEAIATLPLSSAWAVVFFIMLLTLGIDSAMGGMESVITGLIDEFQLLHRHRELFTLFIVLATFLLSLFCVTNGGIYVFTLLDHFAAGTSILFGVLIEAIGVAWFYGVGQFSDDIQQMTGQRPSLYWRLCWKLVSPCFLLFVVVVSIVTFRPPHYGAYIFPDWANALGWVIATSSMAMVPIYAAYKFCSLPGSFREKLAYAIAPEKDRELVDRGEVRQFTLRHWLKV
T4 sequence (P28223 whole entry): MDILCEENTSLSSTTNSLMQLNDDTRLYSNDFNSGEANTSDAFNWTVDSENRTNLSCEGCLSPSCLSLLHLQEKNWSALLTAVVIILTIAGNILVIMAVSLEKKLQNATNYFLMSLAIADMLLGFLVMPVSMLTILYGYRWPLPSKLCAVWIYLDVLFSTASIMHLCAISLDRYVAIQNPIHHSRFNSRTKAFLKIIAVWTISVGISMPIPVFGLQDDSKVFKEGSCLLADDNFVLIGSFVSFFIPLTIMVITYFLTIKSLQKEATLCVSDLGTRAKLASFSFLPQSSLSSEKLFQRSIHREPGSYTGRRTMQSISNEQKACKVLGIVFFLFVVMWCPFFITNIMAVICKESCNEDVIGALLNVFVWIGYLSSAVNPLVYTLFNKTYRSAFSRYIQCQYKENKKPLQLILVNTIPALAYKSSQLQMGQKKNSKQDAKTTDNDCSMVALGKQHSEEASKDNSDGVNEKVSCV
T5 sequence (P23975 whole entry): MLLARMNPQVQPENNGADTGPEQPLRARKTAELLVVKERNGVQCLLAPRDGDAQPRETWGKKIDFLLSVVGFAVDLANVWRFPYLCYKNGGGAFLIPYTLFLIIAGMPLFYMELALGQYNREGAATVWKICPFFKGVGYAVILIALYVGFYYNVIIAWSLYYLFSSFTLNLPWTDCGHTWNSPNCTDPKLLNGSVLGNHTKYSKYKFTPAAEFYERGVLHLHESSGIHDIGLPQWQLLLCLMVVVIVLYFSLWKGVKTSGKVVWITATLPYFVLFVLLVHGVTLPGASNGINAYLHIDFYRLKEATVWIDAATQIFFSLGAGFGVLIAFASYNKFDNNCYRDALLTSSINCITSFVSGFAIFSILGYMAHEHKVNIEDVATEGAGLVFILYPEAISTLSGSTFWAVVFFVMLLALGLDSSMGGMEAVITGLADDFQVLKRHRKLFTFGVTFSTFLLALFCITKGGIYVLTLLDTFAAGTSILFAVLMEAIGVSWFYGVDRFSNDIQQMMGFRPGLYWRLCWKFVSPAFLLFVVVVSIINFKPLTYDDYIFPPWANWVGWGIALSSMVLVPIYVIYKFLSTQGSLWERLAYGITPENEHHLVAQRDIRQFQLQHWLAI
Chain of Muscarinic acetylcholine receptor M1 (Homo sapiens) (P11229 whole entry): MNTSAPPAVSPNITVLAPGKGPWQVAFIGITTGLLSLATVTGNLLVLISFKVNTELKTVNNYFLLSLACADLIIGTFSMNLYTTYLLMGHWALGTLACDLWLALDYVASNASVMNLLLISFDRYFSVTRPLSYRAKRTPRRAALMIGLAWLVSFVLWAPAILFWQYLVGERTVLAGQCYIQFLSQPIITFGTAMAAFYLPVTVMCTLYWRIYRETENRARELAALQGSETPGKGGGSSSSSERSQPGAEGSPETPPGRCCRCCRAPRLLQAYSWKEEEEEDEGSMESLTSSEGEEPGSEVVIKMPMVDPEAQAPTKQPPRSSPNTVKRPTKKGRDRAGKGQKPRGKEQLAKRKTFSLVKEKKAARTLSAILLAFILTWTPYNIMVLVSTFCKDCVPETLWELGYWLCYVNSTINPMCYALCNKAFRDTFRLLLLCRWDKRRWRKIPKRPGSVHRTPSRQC
Chain of Muscarinic acetylcholine receptor M1 (P11229 whole entry): as above
Chain of Muscarinic acetylcholine receptor M2 (P08172 whole entry): as the sequence (P08172 whole entry) above
Chain of Cytochrome P450 3A4 (P08684 whole entry): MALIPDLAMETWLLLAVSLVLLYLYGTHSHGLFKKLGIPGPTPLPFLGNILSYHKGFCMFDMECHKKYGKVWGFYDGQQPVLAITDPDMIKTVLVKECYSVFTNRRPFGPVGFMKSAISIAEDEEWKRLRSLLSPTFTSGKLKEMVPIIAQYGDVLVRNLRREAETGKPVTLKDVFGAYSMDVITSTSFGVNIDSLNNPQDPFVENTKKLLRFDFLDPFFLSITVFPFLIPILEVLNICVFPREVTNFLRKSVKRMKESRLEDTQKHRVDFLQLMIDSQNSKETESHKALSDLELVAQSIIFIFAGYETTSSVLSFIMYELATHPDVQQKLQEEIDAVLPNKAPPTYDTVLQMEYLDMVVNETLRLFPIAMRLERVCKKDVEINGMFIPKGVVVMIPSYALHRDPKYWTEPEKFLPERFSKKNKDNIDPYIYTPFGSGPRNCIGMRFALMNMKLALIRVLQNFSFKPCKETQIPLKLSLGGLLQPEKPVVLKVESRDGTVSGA
Chain of 5-hydroxytryptamine receptor 1B (Rattus norvegicus) (P28564 whole entry): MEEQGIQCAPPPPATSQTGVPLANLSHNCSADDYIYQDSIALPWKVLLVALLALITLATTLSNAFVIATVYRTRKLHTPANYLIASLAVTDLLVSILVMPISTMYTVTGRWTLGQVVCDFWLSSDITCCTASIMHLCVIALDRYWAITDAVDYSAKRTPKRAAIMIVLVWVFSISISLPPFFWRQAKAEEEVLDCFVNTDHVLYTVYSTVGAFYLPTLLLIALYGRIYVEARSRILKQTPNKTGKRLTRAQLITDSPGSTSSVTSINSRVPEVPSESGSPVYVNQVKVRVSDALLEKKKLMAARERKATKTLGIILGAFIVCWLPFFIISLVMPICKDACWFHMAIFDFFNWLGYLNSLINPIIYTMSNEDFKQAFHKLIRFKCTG

Compound: Cl.O=S(=O)(c1cccc(F)c1)c1ccc2c(c1)O[C@H]1CNCC[C@@H]21 (single isomer, unassigned; enantiomer 1)
- bioavailability [1]: < 1%
- Ki [2]: 11 nM
- AUC (Rattus norvegicus [3]): 0 ng·h/mL

Compound: CC(C)Oc1cccc(S(=O)(=O)c2ccc3c(c2)O[C@H]2CNCC[C@@H]32)c1.Cl (single isomer, unassigned; enantiomer 1)
- F (Rattus norvegicus [4]): 9%
- Ki [2]: 17 nM
- AUC (Rattus norvegicus [3]): 637 ng·h/mL

Compound: COc1cc(OC(C)C)cc(S(=O)(=O)c2ccc3c(c2)O[C@H]2CNCC[C@@H]32)c1.Cl (single isomer, unassigned; enantiomer 1)
- IC50 (Cytochrome P450 3A4): > 5900 nM
- IC50 [7]: 3300 nM
- IC50 (Cytochrome P450 1A2): > 30000 nM
- Ki [8]: 6200 nM
- Activity (Rattus norvegicus [9]): 21%
- Activity (Rattus norvegicus [10]): 22%
- IC50 (Cytochrome P450 2D6): > 30000 nM
- Ki [5]: 27 nM
- IC50 [11]: 3900 nM
- Ki [2]: 4 nM
- fraction unbound [12]: 0.027
- half-life [13]: > 40 min
- half-life [14]: > 40 min
- solubility [15]: > 130 µg/mL
- half-life [16]: > 40 min
- IC50 [17]: 2200 nM
- IC50 (Cytochrome P450 2C19): > 22900 nM
- t1/2 (Rattus norvegicus [18]): 150 min
- fraction unbound [19]: 0.046
- IC50 [20]: 6300 nM
- IC50 [21]: 4800 nM
- Activity (Rattus norvegicus [22]): 35%
- IC50 [23]: 7900 nM
- Papp A→B [24]: 2.88 ×10⁻⁶ cm/s
- solubility [25]: > 130 µg/mL
- Ki [26]: 3700 nM
- Vd (Rattus norvegicus [27]): 4.3 L/kg
- Kp [28]: 2.76
- IC50 [29]: 4400 nM
- half-life [30]: > 40 min
- Ki [31]: 19000 nM
- IC50 [6]: 67 nM
- bioavailability [32]: 39%
- IC50 (Cytochrome P450 2C9): > 30000 nM

Compound: CC(C)Oc1cc(F)cc(S(=O)(=O)c2ccc3c(c2)O[C@H]2CNCC[C@@H]32)c1 (single isomer, unassigned; enantiomer 2)
- Ki [2]: 65 nM

Compound: Cl.O=S(=O)(c1cccc(F)c1)c1ccc2c(c1)O[C@H]1CNCC[C@@H]21 (single isomer, unassigned; enantiomer 2)
- F (Rattus norvegicus [4]): 2%
- Ki [2]: 85 nM
- AUC (Rattus norvegicus [3]): 434 ng·h/mL

Compound: CC(C)Oc1cccc(S(=O)(=O)c2ccc3c(c2)O[C@H]2CNCC[C@@H]32)c1.Cl (single isomer, unassigned; enantiomer 2)
- F (Rattus norvegicus [4]): 26%
- Ki [2]: 31 nM
- AUC (Rattus norvegicus [3]): 310 ng·h/mL

Compound: O=S(=O)(c1cc(F)cc(Cl)c1)c1ccc2c(c1)O[C@H]1CNCC[C@@H]21 (single isomer, unassigned; enantiomer 2)
- Ki [2]: 11 nM
- IC50 [6]: 63 nM

Compound: O=S(=O)(c1ccc2c(c1)O[C@H]1CNCC[C@@H]21)c1cccc(Cl)c1Cl (single isomer, unassigned; enantiomer 2)
- Ki [2]: 2 nM
- IC50 [6]: 6 nM

Second part, led by results:

- Ki [5]: 2180 nM
- Ki [2]: 166 nM
- IC50 [6]: 1360 nM
Compound: O=S(=O)(c1cc(F)cc(F)c1)c1ccc2c(c1)O[C@H]1CNCC[C@@H]21 (single isomer, unassigned; enantiomer 1)

- Ki [2]: 68 nM
- IC50 [6]: 790 nM
Compound: O=S(=O)(c1cc(F)cc(Cl)c1)c1ccc2c(c1)O[C@H]1CNCC[C@@H]21 (single isomer, unassigned; enantiomer 1)

- Ki [2]: 5 nM
- IC50 [6]: 40 nM
Compound: O=S(=O)(c1ccc2c(c1)O[C@H]1CNCC[C@@H]21)c1cccc(Cl)c1Cl (single isomer, unassigned; enantiomer 1)

- Ki [2]: 56 nM
Compound: CC(C)Oc1cccc(S(=O)(=O)c2ccc3c(c2)O[C@H]2CNCC[C@@H]32)c1F (single isomer, unassigned; enantiomer 1)

- inhibition [33]: 19%
- inhibition [34]: > 50%
- inhibition [35]: 62%
- inhibition [36]: 71%
- inhibition [37]: > 50%
- inhibition [38]: 16%
- inhibition [39]: 25%
- inhibition [40]: 6%
- inhibition [41]: > 50%
- inhibition [42]: 83%
- inhibition [44]: > 50%
- inhibition [45]: 6%
- inhibition [46]: > 50%
Compound: COc1cc(OC(C)C)cc(S(=O)(=O)c2ccc3c(c2)O[C@H]2CNCC[C@@H]32)c1 (single isomer, unassigned; enantiomer 1)
- Activity (Rattus norvegicus [43]): Dose-dependent effect

- Ki [5]: 174 nM
- Ki [2]: 28 nM
- IC50 [6]: 96 nM
Compound: O=S(=O)(c1cc(F)cc(F)c1)c1ccc2c(c1)O[C@H]1CNCC[C@@H]21 (single isomer, unassigned; enantiomer 2)

- Ki [2]: 21 nM
Compound: CC(C)Oc1cccc(S(=O)(=O)c2ccc3c(c2)O[C@H]2CNCC[C@@H]32)c1F (single isomer, unassigned; enantiomer 2)

- t1/2 (Rattus norvegicus [18]): 42 min
- Vd (Rattus norvegicus [27]): 5.7 L/kg
- Kp [28]: 0.7
- bioavailability [32]: 24%
Compound: O=S(=O)(c1ccccc1)c1cnc2c(N3CCNCC3)cccc2c1 [INTEPIRDINE]
